# Legend:
# [1] = system: murine P388 lymphocytic leukemia (in vivo); details: dose levels from 4.0 to 800 mg/kg, 123 = 23% increase in median survival time; cited from earlier work
# [2] = system: human epidermoid carcinoma of the nasopharynx (KB) cell line; details: cited from earlier work
# [3] = system: in vivo L-1210 lymphoid leukemia; details: cited from earlier work
# [4] = system: KML20L2 (colon adenocarcinoma); test: NCI sulforhodamine B human cancer cell growth inhibition, KML20L2; type: cell-based; details: in DMSO
# Experimental: (§1) Cancer Cell Line Methods. The National Cancer Institute's standard sulforhodamine B assay was used to assess inhibition of human cancer cell growth. The murine P388 lymphocytic leukemia cell line results were obtained using 10% horse serum/Fisher medium with incubation for 24 hours.
# [5] = system: DU-145 (prostate carcinoma); test: NCI sulforhodamine B human cancer cell growth inhibition, DU-145; type: cell-based; details: in DMSO
# Experimental: as §1
# [6] = system: murine P388 lymphocytic leukemia cell line; test: Murine P388 lymphocytic leukemia cell line growth inhibition; type: cell-based; details: in DMSO
# Experimental: as §1
# [7] = system: MCF-7 (breast adenocarcinoma); test: NCI sulforhodamine B human cancer cell growth inhibition, MCF-7; type: cell-based; details: in DMSO
# Experimental: as §1
# [8] = system: BXPC-3 (pancreas adenocarcinoma); test: NCI sulforhodamine B human cancer cell growth inhibition, BXPC-3; type: cell-based; details: in DMSO
# Experimental: as §1
# SF268 (CNS glioblastoma) = test: NCI sulforhodamine B human cancer cell growth inhibition, SF268; type: cell-based; details: in DMSO
# Experimental: as §1
# [9] = system: NCI-H460 (lung large cell); test: NCI sulforhodamine B human cancer cell growth inhibition, NCI-H460; type: cell-based; details: in DMSO
# Experimental: as §1
compound,measurement,setting,value
NCCS(=O)(=O)O [taurine],T/C,[1],≤ 123
same,Activity against KB cell line,[2],inactive
same,Activity against in vivo L-1210 lymphoid leukemia,[3],inactive
"CCCCCCCCCCC/C=C/[C@@H](O)[C@H](CO[C@@H]1O[C@H](CO)[C@@H](O)[C@H](O)[C@H]1O)NC(=O)CCCCCCCCCCCCCCCCC [Compound 2, 1-O-β-D-glucopyranosyl-2S-octadecanoylamino-3R-hydroxy-4E-hexadecene]",Cell line inhibition value GI50,[4],0.35 µg/mL
same,Cell line inhibition value GI50,[5],1.7 µg/mL
same,Cell line inhibition value GI50,[6],0.15 µg/mL
same,Cell line inhibition value GI50,[7],0.39 µg/mL
same,Cell line inhibition value GI50,[8],1.0 µg/mL
same,Cell line inhibition value GI50,SF268 (CNS glioblastoma),1.9 µg/mL
same,Cell line inhibition value GI50,[9],0.53 µg/mL
"CCCCCCCCCCC/C=C/[C@@H](O)[C@H](CO[C@@H]1O[C@H](CO)[C@@H](O)[C@H](O)[C@H]1O)NC(=O)CCCCCCCCCCCCCCC [Compound 1, 1-O-β-D-glucopyranosyl-2S-hexadecanoylamino-3R-hydroxy-4E-hexadecene]",Cell line inhibition value GI50,[4],0.35 µg/mL
same,Cell line inhibition value GI50,[5],1.6 µg/mL
same,Cell line inhibition value GI50,[6],0.27 µg/mL
same,Cell line inhibition value GI50,[7],0.44 µg/mL
same,Cell line inhibition value GI50,[8],0.71 µg/mL
same,Cell line inhibition value GI50,SF268 (CNS glioblastoma),0.98 µg/mL
same,Cell line inhibition value GI50,[9],0.34 µg/mL
"CCCCCCCCCCC/C=C/[C@@H](O)[C@H](CO[C@@H]1O[C@H](CO)[C@H](O)[C@H](O)[C@H]1O)NC(=O)CCCCCCCCCCCCCCCCC [Compound 4, 1-O-β-D-galactopyranosyl-2S-octadecanoylamino-3R-hydroxy-4E-hexadecene]",Cell line inhibition value GI50,[4],0.41 µg/mL
same,Cell line inhibition value GI50,[5],2.6 µg/mL
same,Cell line inhibition value GI50,[6],0.29 µg/mL
same,Cell line inhibition value GI50,[7],0.44 µg/mL
same,Cell line inhibition value GI50,[8],0.93 µg/mL
same,Cell line inhibition value GI50,SF268 (CNS glioblastoma),1.5 µg/mL
same,Cell line inhibition value GI50,[9],0.49 µg/mL
"CCCCCCCCCCC/C=C/[C@@H](O)[C@H](CO[C@@H]1O[C@H](CO)[C@H](O)[C@H](O)[C@H]1O)NC(=O)CCCCCCCCCCCCCCC [Compound 3, 1-O-β-D-galactopyranosyl-2S-hexadecanoylamino-3R-hydroxy-4E-hexadecene]",Cell line inhibition value GI50,[4],0.48 µg/mL
same,Cell line inhibition value GI50,[5],2.6 µg/mL
same,Cell line inhibition value GI50,[6],0.25 µg/mL
same,Cell line inhibition value GI50,[7],0.48 µg/mL
same,Cell line inhibition value GI50,[8],1.6 µg/mL
same,Cell line inhibition value GI50,SF268 (CNS glioblastoma),1.9 µg/mL
same,Cell line inhibition value GI50,[9],0.55 µg/mL

# From patent publication US8053416B2, “Isolation and structure of turbostatins 1-4” (Arizona Board of Regents, a body corporate of the State of …, priority 2005, dated 2011)
